Molecules are shown by their SMILES. Some results are limits rather than exact numbers.

Among the data in patent US9051417B2, “Method for solubilizing carboxylic acid-containing compound in hydrocarbon solvent” (Dow Global Technologies LLC, priority 2013, dated 2015) are Solubility values, retold here.

The series is described as follows: Solubility measurement of acid chlorides containing one carboxylic acid moiety in hydrocarbon solvents with and without trialkylphosphate additives (saturated solutions, proton NMR). The format is physicochemical. The note with it: saturated solution. The text has this:
Many embodiments of the invention have been described and in some instances certain embodiments, selections, ranges, constituents, or other features have been characterized as being “preferred.” Characterizations of “preferred” features should in no way be interpreted as deeming such features as being required, essential or critical to the invention. For purposes of this description, the terms “acyl halide” and “acid halide” have the same meaning. While much of the description has focused upon acyl chlorides, non-chloride halides are also included. The term “solubility limit” refers to the point at which no additional amount of a constituent, (e.g. water, reaction product, hydrocarbon reactant) is miscible or dissolvable with the hydrocarbon solvent or solution, as measured at 20° C. and 101 kPa. Unless otherwise stated, all solubility related parameters are determined at 20° C. and 101 kPa.
Solubility measurement of acid chlorides containing one carboxylic acid moiety in hydrocarbon solvents with and without solubility enhancing additives:
Saturated solutions of sample acid chlorides containing carboxylic acid moieties were prepared in hydrocarbon solvents with and without the presence of trialkylphosphate additives by adding more sample than will dissolve in the solvent and decanting the saturated solvent from the undissolved precipitate. The saturated solutions were evaluated by proton NMR. Deuterated Isopar L is not commercially available, thus all spectra were acquired in the unlocked condition using regular Isopar L. Because of the very high proton concentration in running a non-deuterated solvent, 60° pulse and minimum receiver gain were used to avoid receiver overflow. A relaxation delay of 8 seconds was used for complete signal recovery between scans. The spectral width was set to 20 ppm and the center of the spectrum was set to 5 ppm. Depending on the concentrations of the species of interest, 64-256 scans were used for signal averaging.
The area of the Isopar L peaks between 0.75 and 2.0 ppm were measure and divided by 26 (which represents the average H's present in Isopar L, assuming a molecular formula of C12H26) and multiplied by 170.33, the formula weight of C12H26. The peak area of the aromatic acid chlorides containing carboxylates are between 8.9-9.2 ppm and are well resolved from the Isopar solvent. The integration of one of the assigned peaks (for example, the triplet of mono-hydrolyzed TMC at 9.0 ppm represents a single proton) was used to determine the relative weight of the sample in the Isopar L solvent. The integration is divided by the number of protons it represents and multiplied by the formula weight of the compound it represents (for example, the triplet of mono-hydrolyzed TMC at 9.0 ppm would be divided by 1 and multiplied by 247.03 g/mol). The wt % of mono-hydrolyzed TMC in the saturated solution is determined by dividing the value obtained for mono-hydrolyzed TMC by the value obtained for Isopar L.
In the presence of tributylphosphate (TBP), the Isopar L value must be corrected since a few protons of TBP cannot be resolved from the Isopar L peaks. This is done by integrating the —OCH2-protons of TBP which are well resolved at ˜4.05 ppm, dividing this value by 6 (for 6 protons). This area value is then multiplied by 21 (represents the three —CH2CH2CH3 that are unresolved from the Isopar L peak) and subtracted from the peak area of Isopar L.

Where [1] appears, read: solvent Isopar L, 20° C. and 101 kPa.

Take `O=C(O)c1cccc(C(=O)Cl)c1` [mhIPC]: the Solubility is 0.29 wt % (solvent Isopar L + 0.47 wt % TBP) and less than 0.02 wt % under setting [1].
For `O=C(O)c1cc(C(=O)Cl)cc(C(=O)Cl)c1` [mhTMC, mono-hydrolyzed trimesoyl chloride], the Solubility is on record as 0.29 wt % (solvent 80/20 Isopar L/Toluene + 0.25 wt % TBP); 0.05 wt % (solvent 80/20 Isopar L/Toluene); 0.11 wt % (solvent Isopar L + 1 wt % TEHP); 0.2 wt % (solvent Isopar L + 1 wt % TEP); 0.02 wt % under setting [1].
